Data published in publication PMC6273344, “Biochemical Characteristics of Three Laccase Isoforms from the Basidiomycete Pleurotus nebrodensis” (Molecules, 2015).
Structures can show the parent of a compound that is named as a salt.

How the values were obtained:
Details in all cases: McIlvaine buffer at optimum pH (3.0); ABTS 125-5000 uM; O2 as co-substrate
Lac3 = tested on: Lac3
Lac1 = tested on: Lac1
Lac2 = tested on: Lac2

- Km (Lac3): 104 µM
- Km (Lac1): 160 µM
- Km (Lac2): 550 µM
SMILES: CCn1c(=NN=c2sc3cc(S(=O)(=O)O)ccc3n2CC)sc2cc(S(=O)(=O)O)ccc21 [ABTS, 2,2′-azino-bis(3-ethylbenzothiazoline-6-sulfonic acid) diammonium salt]
